Among the test systems are NCI-H23; T47D; MCF7; HT-29; DU-145; HCT-116; HOP-92; NCI/ADR-RES; HCC 2998; EKVX; SK-MEL-5; MDA-MB-231; SNB-19; COLO 205; RPMI-8226; CCRF-CEM; SR; SNB-75; ACHN; U-251.
Experiment in all cases: NCI anticancer screen, dose series, 48 h

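A five-concentration, 48-hour dose response in 96-well plates underlies each endpoint, interpolated linearly between surrounding concentrations. GI50 is the concentration that inhibits growth by half.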 Active and inactive are the calls of the source. Rule as the data show it: active = GI50 up to about 1.1 µM and inactive = higher. Some results are limits rather than exact numbers.

Take `Cc1cc(SCC(=O)c2ccc(Br)cc2)cc(C)[o+]1`: the GI50 was 31.6 µM (inactive) in the assay with NCI-H23; 19.8 µM (inactive) in the assay with T47D; 19.3 µM (inactive) with MCF7; 25.1 µM (inactive) with HT-29; 29.5 µM (inactive) with DU-145; 23.8 µM (inactive) in the assay with HCT-116. The GI50 with HOP-92 was 22.7 µM (inactive); in the assay with NCI/ADR-RES, 29.8 µM (inactive); in the assay on HCC 2998, 25.2 µM (inactive); with EKVX, 12.4 µM (inactive); in the assay on SK-MEL-5, 18 µM (inactive); with MDA-MB-231, 36.6 µM (inactive). In addition, the GI50 is 36.7 µM (inactive) in the assay with SNB-19; 31.9 µM (inactive) in the assay with COLO 205; 21.7 µM (inactive) in the assay with RPMI-8226; 16 µM (inactive) in the assay on CCRF-CEM; 22.8 µM (inactive) with SR; 20.3 µM (inactive) in the assay on SNB-75. In addition, the values for the GI50 in the assay with ACHN and in the assay with U-251 were 31.2 µM (inactive) and 30.1 µM (inactive), respectively.

Turning to `CN(C)CCNC(=O)c1ccc(NCCCN(C)CCCNc2ccc(C(=O)NCCN(C)C)c3nc4ccccc4c(O)c23)c2c(O)c3ccccc3nc12`, the GI50 was < 0.0122 µM (active) in the assay on NCI-H23; 0.171 µM (active) with T47D; < 0.01 µM (active) in the assay with MCF7; < 0.01 µM (active) in the assay with HT-29; < 0.0114 µM (active) in the assay with DU-145; < 0.01 µM (active) with HCT-116. In addition, the GI50 in the assay with HOP-92 was 0.234 µM (active); in the assay with NCI/ADR-RES, 1.8 µM (inactive); in the assay on HCC 2998, < 0.01 µM (active); in the assay with EKVX, 0.115 µM (active); in the assay on SK-MEL-5, 0.158 µM (active); in the assay on MDA-MB-231, 0.111 µM (active). Further, the GI50 in the assay on SNB-19 was < 0.01 µM (active); with COLO 205, < 0.0109 µM (active); in the assay on RPMI-8226 it was < 0.01 µM (active); in the assay on CCRF-CEM, < 0.012 µM (active); in the assay on SR, < 0.01 µM (active); in the assay with SNB-75, < 0.01 µM (active). The GI50 is 0.0466 µM (active) with ACHN and < 0.01 µM (active) with U-251.

As to `CCCCc1ccc(Nc2nc(Cl)c3ccn(C4CC(Oc5ccc(C)cc5)C(COc5ccc(C)cc5)O4)c3n2)cc1` (stereo not given), the GI50 in the assay on NCI-H23 is 24.8 µM (inactive); in the assay on T47D it was > 46.5 µM (inactive); in the assay with MCF7 it was > 46.5 µM (inactive); in the assay on HT-29, > 46.5 µM (inactive); in the assay on DU-145, > 46.5 µM (inactive); in the assay with HCT-116, > 46.5 µM (inactive). Moreover, the GI50 is > 46.5 µM (inactive) in the assay on HOP-92; > 46.5 µM (inactive) with NCI/ADR-RES; > 46.5 µM (inactive) in the assay with HCC 2998; 28.6 µM (inactive) in the assay with EKVX; > 46.5 µM (inactive) in the assay on SK-MEL-5; > 46.5 µM (inactive) in the assay on MDA-MB-231. Further, the GI50 with SNB-19 was 25.9 µM (inactive); in the assay on COLO 205 it was > 46.5 µM (inactive); with RPMI-8226, > 46.5 µM (inactive); in the assay with CCRF-CEM, > 46.5 µM (inactive); with SR, > 10 µM (inactive); in the assay on SNB-75 it was > 83.2 µM (inactive). For the same compound, the results for the GI50 in the assay with ACHN and in the assay with U-251 were 25.2 µM (inactive) and > 46.5 µM (inactive), respectively.

In the case of `COc1cc(C[C@H]2c3cc(OC)c(OC)cc3CCN2C)c(Oc2cc3c(cc2OC)-c2c(OC)c(OC)cc4c2[C@H](C3)N(C)CC4)cc1OC` [THALICARPINE], the GI50 in the assay with NCI-H23 was 12.4 µM (inactive); in the assay on T47D, 10.1 µM (inactive); in the assay with MCF7, 12.2 µM (inactive); with HT-29, 5.66 µM (inactive); in the assay with DU-145, 14 µM (inactive); in the assay on HCT-116, 4.83 µM (inactive). The GI50 was 1.78 µM (inactive) in the assay on HOP-92; 11.3 µM (inactive) in the assay with NCI/ADR-RES; 7.6 µM (inactive) in the assay with HCC 2998; 12.9 µM (inactive) in the assay with EKVX; 3.28 µM (inactive) in the assay on SK-MEL-5; 4.13 µM (inactive) with MDA-MB-231. Besides, the GI50 was 16.7 µM (inactive) with SNB-19; 5.75 µM (inactive) with COLO 205; 8.04 µM (inactive) in the assay with RPMI-8226; 8.99 µM (inactive) with CCRF-CEM; 5.08 µM (inactive) with SR; 7.03 µM (inactive) in the assay with SNB-75. For the same compound, the GI50 is 12.9 µM (inactive) with ACHN and 3.9 µM (inactive) in the assay on U-251.

With `C=CC1(O)CCCC=C1COCc1ccccc1` (stereo not given), the GI50 was 98.6 µM (inactive) with NCI-H23; 64 µM (inactive) in the assay with T47D; > 100 µM (inactive) in the assay on MCF7; 93.5 µM (inactive) with HT-29; > 100 µM (inactive) with DU-145; 51.3 µM (inactive) in the assay on HCT-116. For the same compound, the GI50 is 52 µM (inactive) in the assay on HOP-92; > 100 µM (inactive) in the assay with NCI/ADR-RES; > 100 µM (inactive) in the assay on HCC 2998; > 100 µM (inactive) with EKVX; 52.6 µM (inactive) with SK-MEL-5; > 100 µM (inactive) in the assay on MDA-MB-231. In addition, the GI50 with SNB-19 is > 100 µM (inactive); in the assay with COLO 205, > 100 µM (inactive); with RPMI-8226 it was 23.8 µM (inactive); with CCRF-CEM, 43.6 µM (inactive); in the assay on SR, 24.8 µM (inactive); in the assay with SNB-75, 61.4 µM (inactive). The figures for the GI50 with ACHN and in the assay on U-251 were 56 µM (inactive) and > 100 µM (inactive), respectively.

Regarding `C=C(C)C(=O)O[C@H]1C[C@@]23O[C@@H]2CCC(=C[C@H]2OC(=O)C(=C)[C@H]12)COC3O` (stereo not given in full), the GI50 in the assay on NCI-H23 is > 100 µM (inactive); in the assay on T47D it was 35.4 µM (inactive); in the assay on MCF7 it was 30.6 µM (inactive); in the assay with HT-29, 57.5 µM (inactive); in the assay on DU-145, > 100 µM (inactive); in the assay on HCT-116 it was 18.9 µM (inactive). Also, the GI50 in the assay with HOP-92 is 21.9 µM (inactive); with NCI/ADR-RES, 44.6 µM (inactive); in the assay on HCC 2998 it was 69.3 µM (inactive); in the assay with EKVX it was 49.2 µM (inactive); in the assay on SK-MEL-5, > 100 µM (inactive); in the assay with MDA-MB-231 it was > 100 µM (inactive). For the same compound, the GI50 is > 100 µM (inactive) with SNB-19; 21.2 µM (inactive) in the assay on COLO 205; 23.4 µM (inactive) in the assay with RPMI-8226; 17.2 µM (inactive) in the assay with CCRF-CEM; 24.7 µM (inactive) in the assay on SR; > 100 µM (inactive) in the assay with SNB-75. Further, the GI50 with ACHN was 39.9 µM (inactive); with U-251 it was > 100 µM (inactive).

As for `c1cc2nnc1SCCCSc1ccc(nn1)SCCCS2`, the GI50 was 34.8 µM (inactive) in the assay on NCI-H23; 31.3 µM (inactive) with T47D; 32.4 µM (inactive) in the assay on MCF7; > 30.2 µM (inactive) with HT-29; > 48 µM (inactive) in the assay on DU-145; 17.6 µM (inactive) in the assay on HCT-116. Besides, the GI50 was 38.4 µM (inactive) in the assay with HOP-92; > 20.5 µM (inactive) in the assay with NCI/ADR-RES; > 37.8 µM (inactive) in the assay on HCC 2998; > 100 µM (inactive) in the assay on EKVX; 29.1 µM (inactive) in the assay on SK-MEL-5; 30 µM (inactive) in the assay on MDA-MB-231. Besides, the GI50 is 33.1 µM (inactive) with SNB-19; > 47 µM (inactive) in the assay on COLO 205; > 25.3 µM (inactive) with RPMI-8226; > 21.2 µM (inactive) with CCRF-CEM; > 26 µM (inactive) with SR; 25.1 µM (inactive) in the assay on SNB-75. For the same compound, the GI50 was > 43.7 µM (inactive) with ACHN and 17.3 µM (inactive) in the assay on U-251.

For the origin of these results see ChEMBL document CHEMBL1201862, “PubChem BioAssay data set” (2004).
